Experimental data: patent US12403128B2, “Compositions and methods for blocking sodium channels” (University of Virginia Patent Foundation, priority 2017, dated 2025)
Where two headings read alike, the source gives them in different places.

Legend:
NaV1.6 sodium channels = NaV1.6 sodium channels (Homo sapiens, UniProt Q9UQD0); assay: State-dependent inhibition: steady state inactivation, use-dependent block; assay type: cell-based
Description: Evaluation of Compounds as State-Dependent Inhibitors
Use dependent block is an important characteristic for AED activity since it allows increased inhibition of sodium channels during increased neuronal activity as is observed during seizures.

[1] = system: maximal electroshock (MES) seizures; assay: MES (maximal electroshock) test, mice; assay type: in vivo; details: for MES N/F (animals active over number tested): 100 mg/kg
Description: Evaluation of Compounds in MES Models of Seizures. […] These seizures are highly reproducible and are electrophysiologically consistent with human seizures. […] Abolition of the hindleg tonic extensor component of the seizure was used as the endpoint.

[2] = system: Metrazol-induced clonic seizures; assay: scM (subcutaneous Metrazol) test, mice; assay type: in vivo
Method: (§1) Evaluation of Compounds in scM Models of Seizures. Subcutaneous injection of the convulsant Metrazol produces clonic seizures in laboratory animals. […] Animals may be pretreated with various doses of the test compound given by ip injection. At a previously determined TPE (time to peak) of the test compound, the dose of Metrazol which will induce convulsions in 97% of animals (CD97:85 mg/kg mice) may be injected into a loose fold of skin in the midline of the neck. The animals may be placed in isolation cages to minimize stress and observed for the next 30 min for the presence or absence of a seizure. An episode of clonic spasms, approximately 3-5 seconds, of the fore and/or hindlimbs, jaws, or vibrissae may be taken as the endpoint. […] The scM test represents acute animal seizures.

[3] = system: 6 Hz psychomotor seizures; assay: 6 Hz psychomotor seizure test, mice; assay type: in vivo; details: for 6 Hz N/F (animals active over number tested): 100 mg/kg; for ED50: Mus musculus
Method: Evaluation of Compounds in 6 Hz Pyschomotor Seizure Test
Compounds were tested using a 6 Hz psychomotor seizure test. […] For example, both the MES and scM models are insensitive to levetiracetam, a compound considered potentially useful in the management of refractory seizures. […] Thus, the 6 Hz test can serve as a therapy resistant screening paradigm of acute seizure activity.

[4] = system: Metrazol-induced clonic seizures; assay: scM (subcutaneous Metrazol) test, rats; assay type: in vivo
Method: as §1

[5] = system: corneal kindled mice seizures; assay: Corneal kindled mice model; assay type: in vivo; details: for Avg. Score / N/F (animals active over number tested): TPE 0.5 hours
Method: Evaluation of Compounds in Corneal Kindled Mice Model.
Corneal kindled mice are kindled electrically via 3 second stimulation at 8 mA, 60 Hz through corneal electrodes to produce 10 consecutive stage […] seizures according to the Racine scale. Animals are defined as kindled once they progress to a reproducible stage 5 seizure. 72 hours after the mice have been kindled the test substance is administered and, according to a previously determined TPE (time to peak), the animals are electrically stimulated. The animals are considered protected when displaying a stage 3, or lower, seizure.

[6] = system: maximal electroshock (MES) seizures; assay: MES (maximal electroshock) test, rats; assay type: in vivo; details: for MES N/F (animals active over number tested): 30 mg/kg
Description: Evaluation of Compounds in MES Models of Seizures. The MES is a model for generalized tonic-clonic seizures and provides an indication of a compound's ability to prevent seizure spread when all neuronal circuits in the brain are maximally active. These seizures are highly reproducible and are electrophysiologically consistent with human seizures. […] Abolition of the hindleg tonic extensor component of the seizure was used as the endpoint.

in vivo = details: mouse, ip
mice = details: mouse, in vivo, ip, 100 mg/kg
Nav1.6 = Nav1.6 (Homo sapiens, UniProt Q9UQD0); assay: % block of Nav1.6 at 100 μM and IC50 (NaV1.6); assay type: cell-based
Sequence of Nav1.6 (Q9UQD0 whole entry): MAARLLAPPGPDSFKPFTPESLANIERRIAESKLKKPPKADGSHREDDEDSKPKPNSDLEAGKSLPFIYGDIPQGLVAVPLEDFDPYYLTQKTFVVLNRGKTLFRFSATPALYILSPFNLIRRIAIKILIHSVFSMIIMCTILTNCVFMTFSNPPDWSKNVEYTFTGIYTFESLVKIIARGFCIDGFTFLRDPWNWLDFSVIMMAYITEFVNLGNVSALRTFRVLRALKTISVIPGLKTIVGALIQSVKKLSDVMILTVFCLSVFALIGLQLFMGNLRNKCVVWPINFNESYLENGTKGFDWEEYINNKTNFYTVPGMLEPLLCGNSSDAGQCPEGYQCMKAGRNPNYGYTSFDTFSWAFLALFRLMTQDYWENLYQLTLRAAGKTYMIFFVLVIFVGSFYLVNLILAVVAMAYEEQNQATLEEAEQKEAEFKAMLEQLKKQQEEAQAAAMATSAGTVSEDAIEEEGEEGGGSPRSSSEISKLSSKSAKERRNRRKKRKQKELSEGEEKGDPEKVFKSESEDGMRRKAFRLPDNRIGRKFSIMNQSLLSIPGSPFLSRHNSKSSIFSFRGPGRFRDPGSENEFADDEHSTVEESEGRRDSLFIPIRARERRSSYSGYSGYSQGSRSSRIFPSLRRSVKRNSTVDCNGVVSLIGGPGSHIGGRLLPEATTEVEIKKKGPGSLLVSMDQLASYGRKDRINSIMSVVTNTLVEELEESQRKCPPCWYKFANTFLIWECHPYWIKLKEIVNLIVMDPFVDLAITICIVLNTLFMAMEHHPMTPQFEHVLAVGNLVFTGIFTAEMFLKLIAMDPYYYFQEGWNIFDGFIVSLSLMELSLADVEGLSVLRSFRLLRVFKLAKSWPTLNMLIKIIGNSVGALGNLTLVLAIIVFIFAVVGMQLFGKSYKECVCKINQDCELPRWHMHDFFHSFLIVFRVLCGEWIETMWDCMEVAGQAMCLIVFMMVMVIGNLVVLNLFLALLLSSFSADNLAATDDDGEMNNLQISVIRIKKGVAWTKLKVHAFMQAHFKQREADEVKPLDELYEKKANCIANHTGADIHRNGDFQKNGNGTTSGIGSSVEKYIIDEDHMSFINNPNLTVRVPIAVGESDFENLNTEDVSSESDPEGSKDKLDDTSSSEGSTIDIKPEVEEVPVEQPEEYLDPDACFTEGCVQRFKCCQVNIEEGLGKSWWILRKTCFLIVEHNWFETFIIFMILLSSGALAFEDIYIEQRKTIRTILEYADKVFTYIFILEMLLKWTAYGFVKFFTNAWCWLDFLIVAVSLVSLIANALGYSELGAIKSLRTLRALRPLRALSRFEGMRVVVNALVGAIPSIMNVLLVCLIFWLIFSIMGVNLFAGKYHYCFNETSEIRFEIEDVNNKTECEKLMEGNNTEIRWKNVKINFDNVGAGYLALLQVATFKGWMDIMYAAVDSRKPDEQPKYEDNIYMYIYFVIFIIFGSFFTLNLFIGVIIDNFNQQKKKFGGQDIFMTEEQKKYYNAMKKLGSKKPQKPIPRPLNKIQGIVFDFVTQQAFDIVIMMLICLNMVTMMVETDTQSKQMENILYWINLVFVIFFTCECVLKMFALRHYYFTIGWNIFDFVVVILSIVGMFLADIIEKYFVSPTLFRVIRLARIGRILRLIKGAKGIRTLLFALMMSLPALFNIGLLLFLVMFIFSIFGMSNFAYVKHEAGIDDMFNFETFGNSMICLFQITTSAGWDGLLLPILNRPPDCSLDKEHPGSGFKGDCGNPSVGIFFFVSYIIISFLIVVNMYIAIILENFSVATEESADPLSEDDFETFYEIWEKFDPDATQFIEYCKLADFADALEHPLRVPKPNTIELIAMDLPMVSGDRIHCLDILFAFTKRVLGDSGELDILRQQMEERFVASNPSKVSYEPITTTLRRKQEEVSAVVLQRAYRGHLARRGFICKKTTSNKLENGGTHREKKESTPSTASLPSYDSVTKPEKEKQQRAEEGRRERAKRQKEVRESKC
Procedure, shortened: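 Nav1.6 block recorded as percent inhibition at 100 μM compound; IC50 also reported.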

[7] = Behavioral toxicity (TOX, TD50), rats; assay type: in vivo; details: rat, in vivo, IP, Table 15, read-out: TOX TD50
rats = assay: Behavioral toxicity (TOX, TD50), rats; assay type: in vivo; details: IP, 30 mg/kg

Sequence of NaV1.6 sodium channels (Q9UQD0 whole entry): as above

Clc1ccc2nc(-c3ccccc3)[nH]c2c1 [MV1066, 6-chloro-2-phenyl-1H-1,3-benzodiazole]
effect on current amplitude and activation gating (NaV1.6 sodium channels; 100 μM, 1 second pre-pulse): inhibits macroscopic current amplitude but has no effect on activation gating | use-dependent block (NaV1.6 sodium channels; 20 Hz): profound use-dependent block | affinity by holding potential (dose response) (NaV1.6 sodium channels; cells held at −100 mV or −60 mV, stepped to +10 mV): greater affinity for cells held at −60 mV | ED50 ([1]; Mouse, time 0.5 hrs, read-out: ED50 from MES test): 44.2 mg/kg | ED50 ([1]; Mus musculus, mice, IP, Table 14, read-out: MES ED50): 44.2 mg/kg | MES N/F (animals active over number tested) ([1]; mice, IP, 0.25 h): 4/4 | MES N/F (animals active over number tested) ([1]; mice, IP, 0.5 h): 4/4 | MES N/F (animals active over number tested) ([1]; mice, IP, 1.0 h): 4/4 | MES N/F (animals active over number tested) ([1]; mice, IP, 2.0 h): 4/4 | MES N/F (animals active over number tested) ([1]; mice, IP, 4.0 h): 4/4 | ED50 ([2]; Mus musculus, mice, IP, Table 14, read-out: sCM ED50): 180 mg/kg | ED50 ([2]; sc, Mouse, time 0.5 hrs, read-out: ED50 from scM test): 181 mg/kg | 6 Hz N/F (animals active over number tested) ([3]; IP, 32 mA, 0.25 h): 4/4 | 6 Hz N/F (animals active over number tested) ([3]; IP, 32 mA, 0.5 h): 4/4 | 6 Hz N/F (animals active over number tested) ([3]; IP, 32 mA, 1.0 h): 3/4 | 6 Hz N/F (animals active over number tested) ([3]; IP, 32 mA, 2.0 h): 2/4 | 6 Hz N/F (animals active over number tested) ([3]; IP, 32 mA, 4.0 h): 0/4 | 6 Hz N/F (animals active over number tested) ([3]; IP, 44 mA, 0.25 h): 2/4 | 6 Hz N/F (animals active over number tested) ([3]; IP, 44 mA, 0.5 h): 2/4 | 6 Hz N/F (animals active over number tested) ([3]; IP, 44 mA, 1.0 h): 2/4 | 6 Hz N/F (animals active over number tested) ([3]; IP, 44 mA, 2.0 h): 0/4 | 6 Hz N/F (animals active over number tested) ([3]; IP, 44 mA, 4.0 h): 0/4 | ED50 ([3]; 32 mA, read-out: ED50 (6 Hz test)): 67.1 mg/kg | ED50 ([3]; IP, 32 mA, Table 14, read-out: 6 Hz (32 mA) ED50): 67.1 mg/kg | ED50 ([3]; IP, (14 mA) [sic], Table 14, read-out: 6 Hz (14 mA) ED50): 72.4 mg/kg | ED50 ([4]; Rattus norvegicus, rats, IP, Table 15, read-out: sCM ED50): 96.9 mg/kg | ED50 ([4]; sc, Rat, time 0.5 hrs, read-out: ED50 from scM test): 97 mg/kg | Avg. Score ([5]; 35 mg/kg): 4.75 | N/F (animals active over number tested) ([5]; 35 mg/kg): 1/8 | Avg. Score ([5]; 72 mg/kg): 3.125 | N/F (animals active over number tested) ([5]; 72 mg/kg): 5/8 | Avg. Score ([5]; 90 mg/kg): 2.75 | N/F (animals active over number tested) ([5]; 90 mg/kg): 5/8 | Avg. Score ([5]; 120 mg/kg): 0.375 | N/F (animals active over number tested) ([5]; 120 mg/kg): 8/8 | ED50 ([5]; Mus musculus): 64.1 mg/kg | ED50 ([6]; Rat, time 0.5 hrs, read-out: ED50 from MES test): 25.1 mg/kg | ED50 ([6]; Rattus norvegicus, rats, IP, Table 15, read-out: MES ED50): 25.1 mg/kg | MES N/F (animals active over number tested) ([6]; rats, IP, 0.25 h): 2/4 | MES N/F (animals active over number tested) ([6]; rats, IP, 0.5 h): 4/4 | MES N/F (animals active over number tested) ([6]; rats, IP, 1.0 h): 4/4 | MES N/F (animals active over number tested) ([6]; rats, IP, 2.0 h): 3/4 | MES N/F (animals active over number tested) ([6]; rats, IP, 4.0 h): 4/4 | TD50 (in vivo): 383 mg/kg | TOX N/F (animals toxic over number tested) (mice; 0.5 h): 0/4 | TOX N/F (animals toxic over number tested) (mice; 1 h): 0/4 | TOX N/F (animals toxic over number tested) (mice; 2 h): 0/4 | TOX N/F (animals toxic over number tested) (mice; 4 h): 0/4 | inhibition at 100 µM (Nav1.6; 100 μM compound): 95% | IC50 (Nav1.6; NaV1.6, Table 2, MV1060-MV1091, unit inferred, read-out: IC50): 34.6 µM | TD50 [7]: > 500 mg/kg | TOX N/F (animals toxic over number tested) (rats; 0.25 h): 0/4 | TOX N/F (animals toxic over number tested) (rats; 0.5 h): 0/4 | TOX N/F (animals toxic over number tested) (rats; 1.0 h): 0/4 | TOX N/F (animals toxic over number tested) (rats; 2.0 h): 0/4 | TOX N/F (animals toxic over number tested) (rats; 4.0 h): 0/4
